# Source: patent US9029409B2, “Isoxazolines as therapeutic agents” (AbbVie Inc., priority 2011, dated 2015)
# Target: T1, recombinant human MMP13 catalytic domain (CD) (Homo sapiens, UniProt P45452)
# T1 construct: catalytic domain (CD) construct encompassing residues 20-274 (SWISS-PROT P45452); made in house
# Experiment: MMP-13 catalytic domain FRET enzyme assay
# Assay type: biochemical
# Settings: recombinant human MMP-13 catalytic domain
# Summary of the method: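 Human MMP-13 catalytic domain (res 20-274, E. coli-expressed), 0.4 nM, cleaving FRET peptide (0.25 μM) in Tris pH 7.5/CaCl2/NaCl/Brij 35, 5% DMSO, 60 min RT; EDTA-quenched, fluorescence 485/535 nm. IC50 from sigmoidal fit of % inhibition. Some compounds also run on APMA-activated full-length MMP13 (2 nM).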
row,SMILES,IC50 [nM]
1,Cc1nc(C(=O)NCc2cccc(F)c2)cc(C2=NO[C@@H]([C@H]3CO[C@H](CO)CO3)C2)n1,> 1000
2,COc1cc(CNC(=O)c2cc(C3=NOC(c4ccc(C(N)=O)cc4)C3)nc(C)n2)ccc1F (stereo not shown),< 10
3,CNC(=O)Cn1cc(C2CC(c3cc(C(=O)NCc4ccc(F)c(OC)c4)nc(C)n3)=NO2)ccc1=O (stereo not shown),< 10
4,COc1cc(CNC(=O)c2cc(C3=NOC(C4CCN(C(=O)CN(C)C)CC4)C3)nc(C)n2)ccc1F (stereo not shown),10 to 100
5,COc1cc(CNC(=O)c2cc(C3=NO[C@H](C4CCN(C(=O)CO)CC4)C3)nc(C)n2)ccc1F,< 10
6,COc1cc(CNC(=O)c2cc(C3=NOC(c4ccc(S(C)(=O)=O)cn4)C3)nc(C)n2)ccc1F (stereo not shown),< 10
7,COc1cc(CNC(=O)c2cc(C3=NOC(c4ccc(CN5CCOCC5)cc4)C3)nc(C)n2)ccc1F (stereo not shown),10 to 100
8,CNC(=O)Cn1ccc(C2CC(c3cc(C(=O)NCc4ccc(F)c(OC)c4)nc(C)n3)=NO2)cc1=O (stereo not shown),10 to 100
9,Cc1nc(C(=O)NCc2ccc(F)c(C)c2)cc(C2=NOC(c3ccc(C#N)nn3)C2)n1 (stereo not shown),< 10
10,Cc1nc(C(=O)NCc2ccc(F)c(Cl)c2)cc(C2=NO[C@@H]([C@H]3CO[C@H](CO)CO3)C2)n1 [drawing 1070],> 1000
11,Cc1nc(C(=O)NCc2ccc3c(c2)NC(=O)CO3)cc(C2=NO[C@H]([C@H]3CO[C@H](CO)CO3)C2)n1,< 10
12,COc1cc(CNC(=O)c2cc(C3=NOC([C@H]4CC[C@H](C(N)=O)CC4)C3)nc(C)n2)ccc1F (stereo partly shown),< 10
13,CC(=O)N[C@H]1CC[C@H](C2CC(c3cc(C(=O)NCc4ccc5c(c4)NC(=O)CO5)nc(C)n3)=NO2)CC1 (stereo partly shown),< 10
14,COc1ccc(CNC(=O)c2cc(C3=NOC(C4CCN(C(C)=O)CC4)C3)nc(C)n2)cc1 (stereo not shown),100 to 1000
15,COc1cc(CNC(=O)c2cc(C3=NOC(c4ccc(=O)n(CC(=O)N(C)C)n4)C3)nc(C)n2)ccc1F (stereo not shown),10 to 100
16,COc1cc(CNC(=O)c2cc(C3=NOC(c4nn[nH]n4)C3)nc(C)n2)ccc1F (stereo not shown),> 1000
17,COc1cc(CNC(=O)c2cc(C3=NOC([C@H]4CC[C@H](NC(=O)C(C)(C)O)CC4)C3)nc(C)n2)ccc1F (stereo partly shown),10 to 100
18,Cc1nc(C(=O)NCc2ccc3c(c2)NC(=O)CO3)cc(C2=NO[C@@H]([C@H]3CC[C@H](NC(=O)[C@H](C)O)CC3)C2)n1,< 10
19,COc1cc(CNC(=O)c2cc(C3=NOC(c4cnccn4)C3)nc(C)n2)ccc1F (stereo not shown),10 to 100
20,CNC(=O)Cn1cc(C2CC(c3cc(C(=O)NCc4ccc(F)c(OC)c4)nc(C)n3)=NO2)cc(Cl)c1=O (stereo not shown),< 10

row,SMILES,IC50 [nM]
1,Cc1nc(C(=O)NCc2ccc(F)c(C)c2)cc(C2=NOC(C3CCN(C(=O)CO)CC3)C2)n1 (stereo not shown),10 to 100
2,COc1cc(CNC(=O)c2cc(C3=NOC([C@H]4CC[C@H](NC(=O)N(C)C)CC4)C3)nc(C)n2)ccc1F (stereo partly shown),< 10
3,COc1cc(CNC(=O)c2cc(C3=NOC(C4CCN(C(=O)CS(C)(=O)=O)CC4)C3)nc(C)n2)ccc1F (stereo not shown),10 to 100
4,COc1cc(CNC(=O)c2cc(C3=NOC([C@H]4CC[C@H](NC(C)=O)CC4)C3)nc(C)n2)ccc1F (stereo partly shown),< 10
5,Cc1nc(C(=O)NCc2ccc(F)c(F)c2)cc(C2=NOC(c3ccc(=O)n(C)c3)C2)n1 (stereo not shown),10 to 100
6,COc1ccc(CNC(=O)c2cc(C3=NOC(c4ccccc4)C3)nc(C)n2)cc1 (stereo not shown),10 to 100
7,COc1cc(CNC(=O)c2cc(C3=NO[C@H](c4ccn(C)c(=O)c4)C3)nc(C)n2)ccc1F,< 10
8,Cc1nc(C(=O)NCc2ccc(Cl)c(Cl)c2)cc(C2=NO[C@H]([C@H]3CO[C@H](CO)CO3)C2)n1,> 1000
9,Cc1nc(C(=O)NCc2ccc(F)c(C)c2)cc(C2=NOC(c3ccc(=O)n(C)c3)C2)n1 (stereo not shown) [drawing 1015],< 10
10,COc1cc(CNC(=O)c2cc(C3=NOC(C(=O)N4CCCC4)C3)nc(C)n2)ccc1F (stereo not shown),> 1000
11,COc1cc(CNC(=O)c2cc(C3=NOC(c4ccc(=O)n(C5CC5)n4)C3)nc(C)n2)ccc1F (stereo not shown),10 to 100
12,COc1cc(CNC(=O)c2cc(C3=NOC(c4ccn(CC(=O)NC(C)C)c(=O)c4)C3)nc(C)n2)ccc1F (stereo not shown),10 to 100
13,Cc1nc(C(=O)NCc2ccc(F)c(Cl)c2)cc(C2=NO[C@H]([C@H]3CO[C@H](CS(C)(=O)=O)CO3)C2)n1,< 10
14,COc1cc(CNC(=O)c2cc(C3=NOC([C@H]4CC[C@H](CNC(=O)CC#N)CC4)C3)nc(C)n2)ccc1F (stereo partly shown),< 10
15,COc1cc(CNC(=O)c2cc(C3=NOC(CN4CCN(C(C)=O)CC4)C3)nc(C)n2)ccc1F (stereo not shown),> 1000
16,Cc1cccc(CNC(=O)c2cc(C3=NO[C@@H]([C@H]4CO[C@H](CO)CO4)C3)nc(C)n2)c1,> 1000
17,COc1cc(CNC(=O)c2cc(C3=NOC(c4ccc(=O)n(CC(=O)N(C)OC)c4)C3)nc(C)n2)ccc1F (stereo not shown),< 10
18,COc1cc(CNC(=O)c2cc(C3=NOC(C4CCN(S(=O)(=O)c5c(C)noc5C)CC4)C3)nc(C)n2)ccc1F (stereo not shown),< 10
19,CC(=O)NC[C@@H]1CO[C@@H]([C@@H]2CC(c3cc(C(=O)NCc4ccc(F)c(C)c4)nc(C)n3)=NO2)CO1,< 10
20,Cc1nc(C(=O)NCc2ccc3oc(C)nc3c2)cc(C2=NO[C@@H]([C@H]3CO[C@H](CO)CO3)C2)n1,> 1000
